The data set has as its target T1, UGT1A4 (Homo sapiens, UniProt P22310).
T1 construct: purchased BD Biosciences
T1 sequence (P22310 29-534): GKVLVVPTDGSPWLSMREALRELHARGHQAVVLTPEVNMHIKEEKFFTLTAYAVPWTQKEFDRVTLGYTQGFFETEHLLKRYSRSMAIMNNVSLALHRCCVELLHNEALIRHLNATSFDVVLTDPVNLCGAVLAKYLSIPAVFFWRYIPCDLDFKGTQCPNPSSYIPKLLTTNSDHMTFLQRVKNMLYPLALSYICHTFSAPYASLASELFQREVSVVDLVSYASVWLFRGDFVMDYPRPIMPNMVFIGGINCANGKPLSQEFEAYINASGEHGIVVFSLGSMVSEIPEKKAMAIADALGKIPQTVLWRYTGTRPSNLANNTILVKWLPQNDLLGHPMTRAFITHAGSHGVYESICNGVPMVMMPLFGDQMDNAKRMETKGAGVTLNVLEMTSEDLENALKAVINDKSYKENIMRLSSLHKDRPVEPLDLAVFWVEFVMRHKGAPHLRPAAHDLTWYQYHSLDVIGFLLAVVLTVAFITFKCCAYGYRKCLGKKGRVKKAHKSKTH
Put plainly: UGT reaction phenotyping, UGT1A4. It is filed as in vitro ADME. The following applies: glucuronide formed from trifluoperazine 1 μM, printed in the half-life column with *. The text has this:
Experimental Summary: UGT Reaction Phenotyping (7 Isoforms).

SMILES strings stand for the structures.

As to `C[N+]1([C@@H]2O[C@H](C(=O)[O-])[C@@H](O)[C@H](O)[C@H]2O)CCN(CCCN2c3ccccc3Sc3ccc(C(F)(F)F)cc32)CC1` [Trifluoperazine Glucuronide], the “average peak area ratio at 60 min/average peak area ratio at 0 min” value is listed as “*6.38”.

The values are drawn from US12433903B2 (priority 2021, dated 2025).
